Measured values: PMC10636171 (Cell Death & Disease, 2023)
pIC50: −log10 of the molar value.

Key:
[1] = tested on: phosphorylated c-Met in MHCC97H cells; test: Western blot of phosphorylated c-Met; assay type: cell-based, human; conditions: concentration as low as 1 nM
Description: (§1) Proteins (25–50 ug/lane) were separated on a 4–12% Bis-Tris NuPAGE gel and blotted onto a PVDF membrane (FluoroTrans; VWR). […] Horseradish peroxidase-conjugated secondary antibodies were from Cell Signaling. Proteins were visualized by enhanced chemiluminescence (Millipore) on ChemiDoc camera (Bio-Rad) and protein expression levels were quantified using the lmageJ software. Full anduncropped western blots are presented in Supplemental File.

[2] = tested on: phosphorylated c-Met in MKN45 cells; test: Western blot of phosphorylated c-Met; assay type: cell-based, human; conditions: MKN45, concentration as low as 1 nM
Description: as §1

ASPC1 [3] = test: Transwell migration assay; assay type: cell-based, human
Description: (§2) Migration assay was performed using an 8 μm-pore Boyden chamber (24-well, #353097, Corning, NY, USA). Treated with 1, 5, and 10 nM 1D228 for 48 h. A total of 5 × 10^4 cells were seeded in serum-free medium in the top chamber and allowed to migrate for 48 h toward the bottom chamber containing 10% fetal bovine serum medium. Cells were fixed and permeabilized with cold 70% ethanol and methanol and stained with 0.4% crystal violet. The average number of migrating cells was evaluated from at least four independent microscope fields.

MHCC97H [4] = test: Transwell migration assay; assay type: cell-based, human; conditions: transwell, 1, 5 and 10 nM
Description: as §2

MHCC97H xenograft tumor = MHCC97H xenograft tumor model; assay type: in vivo, BALB/c nude mice; conditions: ig, calculated through tumor weight
Description: Male BALB/c nude mice (5-week old, 18–20 g) were purchased from Beijing Vital River Laboratory Animal Technology (Beijing Vital River LaboratoryAnimal Technology Co., Ltd., Beijing,China) and allowed to acclimate for 1 week, maintained at constant room temperature and fed a standard rodent chow and water. 1 × 10^7 cells/mL cancer cells grown in logarithmic phase were harvested and resuspended in FBS-free 1640 medium. Then, 100 μL of the cell suspension was subcutaneously injected into the right flank of each mouse. When the tumour volume was reached about 600–800 mm^3, it was removed, minced into small pieces of equal volume (2 × 2 × 2 mm^3), and transplanted subcutaneously into the nude mice. When the tumour volume was reached about 200–400 mm^3, the xenograft tumour-bearing nude mice were randomly allocated to five groups (vehicle-treated, 1D228-2mgd-treated, 1D228-4mgd-treated […] Tepotinib-treated groups, with 6 or 8 mice (The number of mice were determined according to previous experience on xenograft tumor models) per group. Each group was dosed by intragastric administration (ig) for 7–14 days. Tumour volume and body weights were recorded every day after drug treatment. At the end of the observation period, the animals were euthanized by cervical dislocation and the tumour bulks were peeled off conformed to the Guide for the Care and Use of Laboratory Animals as published by the US National Institutes of Health (NIH Publication No. 85-23, revised 1996) and approved by the Institutional Ethics Review Board of Binzhou Medical University. There was no blinding was done during the animal experiment. No animals were excluded from the analysis.

ASPC1 [5] = test: CCK8 antiproliferative assay; assay type: cell-based; conditions: Homo sapiens; ASPC1, CCK8, 72 h; read-out: IC50, cell proliferation
Description: (§3) For cytotoxicity assay, the cells grown in the logarithmic phase were seeded into 96-well plates (7 × 10^3 cells/well) for 24 h, then exposed to different concentrations (10, 5, 1, 0.1, 0.01 and 0.001 μM) of the test compounds for 72 h. After attached cells were incubated with CCK8 (Sigma, USA) for another 1–4 h. Then the absorbance at 450 nm was measured using a multifunction microplate reader (Molecular Devices, Flex Station 3), and each experiment was performed at least in triplicate.

MHCC97H [6] = test: CCK8 antiproliferative assay; assay type: cell-based; conditions: Homo sapiens, CCK-8, 72 h, read-out: IC50, cell proliferation
Description: as §3

SMILES: [2H][C@@](C)(c1cccc(-c2ncc(OCC3CCN(C)CC3)cn2)c1)n1nc(-c2cccc(C#N)c2)ccc1=O [1D228]
- Phosphorylated c-Met level [1]: significant reduction
- Phosphorylated c-Met level [2]: significant reduction
- Cells blocked from migrating (ASPC1 [3]): 50–80%
- Cells blocked from migrating (MHCC97H [4]): 50–80%
- Tumor growth inhibition (TGI) (MHCC97H xenograft tumor; 2 mg/kg): 81.2%
- Tumor growth inhibition (TGI) (MHCC97H xenograft tumor; 4 mg/kg): 93.4%
- Tumor growth inhibition (TGI) (MHCC97H xenograft tumor; 8 mg/kg): 98.2%
- pIC50 (ASPC1 [5]): 5.88
- pIC50 (MHCC97H [6]): 8.37
